Test results as given in US20060019270A1, “Global DNA methylation assessment using bisulfite PCR” (Board of Regents The University of Texas System, priority 2004, published 2006).

Tested on: LINE-1 methylation in SW48 cells
Assay: COBRA (HinfI) of LINE-1 PCR, SW48 cells treated with DAC
Type: cell-based, human
Settings: 5 μM DAC for three days, decrease from 59%
Experimental: Hct116, RKO and SW48, colon cancer cell lines (American Type Culture Collection, Manassas, Va.), were cultured using standard methods. Cells were treated with 5 μM 5-aza-2′deoxycytidine (DAC) for three days prior to being harvested. DNA from cell lines and peripheral blood leukocytes was extracted using phenol-chloroform extraction methods well known to one with skill on the art.
Bisulfite modification of genomic DNA is known in the art (see Clark et. al, 1994). In brief, 1.5 μg prepared 10 mM hydroquinone (Sigma) and 520 μl of 3M Sodium Bisulfite (Sigma) at pH=5.0 were added and mixed. The samples were overlayed with mineral oil to prevent evaporation and incubated at 50° C. for 16 hours. The bisulfite treated DNA was isolated using Wizard DNA Clean-Up System (Promega). The DNA was eluted by 50 μl of warm water and 5.5 μl of 3M NaOH were added for 5 minutes. The DNA was ethanol precipitated with glycogen as a carrier and resuspended in 20 μl water. Bisulfite treated DNA was stored at −20° C. until ready for use. […]
In order to test whether Alu element […] LINE-1 methylation could approximate global methylation, COBRA, restriction digestion of the repetitive element PCR product, was used to quantitate DNA methylation in cell lines treated with 5-aza-2′deoxycytidine (DAC) (FIG. 3). […] Thus both assays reliably detected inhibition of methylation induced by DAC. […]

Nc1ncn([C@H]2C[C@H](O)[C@@H](CO)O2)c(=O)n1 [decitabine, 5-aza-2′-deoxycytidine]
LINE-1 methylation after treatment with DAC: 41%
